Results reported in PubChem BioAssay AID330 (DTP/NCI, 2004).
Where “and” joins values, the source holds several entries; their conditions need not be identical. Equal entries are not always repeated. Toxic doses and inconclusive results are not listed. The calls were made as follows: active = survival T/C of 150% or more; inactive = T/C below 125% in these data.

Tested on: P388 leukemia ip, CD2F1 mice, survival T/C
Test: NCI In Vivo Anticancer Drug Screen. Data for tumor model P388 Leukemia (intraperitoneal) in CD2F1 (CDF1) mice
Details: endpoint: median survival time, higher = longer survival
Procedure, shortened: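 Mice carrying the transplanted tumor received test compound or vehicle. Survival was recorded in each group, and the value is the treated-group measurement divided by that of the vehicle-treated control group.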

[1] = dose: 6.25 mg/kg/injection, schedule: Q01DX009 (ip), vehicle: saline with Tween-80
[2] = dose: 25.0 mg/kg/injection, schedule: Q01DX009 (ip), vehicle: Klucel (hydroxypropylcellulose) (HPC)
[3] = dose: 25.0 mg/kg/injection, schedule: Q01DX009 (ip), vehicle: saline with Tween-80
[4] = dose: 50.0 mg/kg/injection, schedule: Q01DX009 (ip), vehicle: Klucel (hydroxypropylcellulose) (HPC)
[5] = dose: 50.0 mg/kg/injection, schedule: Q01DX005 (ip), vehicle: Klucel (hydroxypropylcellulose) (HPC)
[6] = dose: 50.0 mg/kg/injection, schedule: Q01DX005 (ip), vehicle: saline with Tween-80
[7] = dose: 50.0 mg/kg/injection, schedule: Q01DX009 (ip), vehicle: saline with Tween-80
[8] = dose: 100.0 mg/kg/injection, schedule: Q01DX005 (ip), vehicle: saline with Tween-80
[9] = dose: 100.0 mg/kg/injection, schedule: Q04DX003 (ip), vehicle: saline with Tween-80
[10] = dose: 200.0 mg/kg/injection, schedule: Q01DX005 (ip), vehicle: saline with Tween-80
[11] = dose: 200.0 mg/kg/injection, schedule: Q04DX003 (ip), vehicle: saline with Tween-80
[12] = dose: 400.0 mg/kg/injection, schedule: Q04DX003 (ip), vehicle: saline with Tween-80
[13] = dose: 100.0 mg/kg/injection, schedule: Q01DX009 (ip), vehicle: Klucel (hydroxypropylcellulose) (HPC)
[14] = dose: 200.0 mg/kg/injection, schedule: Q01DX009 (ip), vehicle: Klucel (hydroxypropylcellulose) (HPC)
[15] = dose: 100.0 mg/kg/injection, schedule: Q01DX009 (ip), vehicle: saline with Tween-80
[16] = dose: 200.0 mg/kg/injection, schedule: Q01DX009 (ip), vehicle: saline with Tween-80

Measured: T/C

O=C1NC(Cc2ccccc2)C(=O)NC1Cc1ccccc1 (stereo unspecified)
inactive: dose: 3.13 mg/kg/injection, schedule: Q01DX009 (ip), vehicle: saline with Tween-80 86 % of control | [1] 100 % of control | dose: 12.5 mg/kg/injection, schedule: Q01DX009 (ip), vehicle: saline with Tween-80 107 % of control | [2] 101 % of control | [3] 103 % of control | [4] 104 % of control

COc1cc(C(c2cc3c(cc2OC(C)=O)OCO3)C(C(C)=O)C(C)=O)cc(OC)c1OC(C)=O (stereo unspecified)
inactive: dose: 60.0 mg/kg/injection, schedule: Q01DX005 (ip), vehicle: saline with Tween-80 90 % of control | dose: 120.0 mg/kg/injection, schedule: Q01DX005 (ip), vehicle: saline with Tween-80 96 % of control

CCC(=O)C1(C)OC1C(C)CC(C)C1OC(=O)CC2(O)CC=C(C)C(O2)/C(C)=C/CCCC(OC2CC(OC(N)=O)C(O)C(C)O2)/C=C/C(C)C(O)C1C (stereo unspecified)
inactive: dose: 6.2 mg/kg/injection, schedule: Q01DX005 (ip), vehicle: Klucel (hydroxypropylcellulose) (HPC) 109 % of control | dose: 12.5 mg/kg/injection, schedule: Q01DX005 (ip), vehicle: Klucel (hydroxypropylcellulose) (HPC) 98 % of control | dose: 25.0 mg/kg/injection, schedule: Q01DX005 (ip), vehicle: Klucel (hydroxypropylcellulose) (HPC) 103 % of control | [5] 108 % of control

C/C=C(/C)C(=O)OC1CC(C)=C2C(=O)C=C(C)C2C2OC(=O)C(C)(OC(=O)/C(C)=C\C)C12 (stereo unspecified)
inactive: dose: 4.0 mg/kg/injection, schedule: Q01DX009 (ip), vehicle: Klucel (hydroxypropylcellulose) (HPC) 102 % of control | dose: 8.0 mg/kg/injection, schedule: Q01DX009 (ip), vehicle: Klucel (hydroxypropylcellulose) (HPC) 102 % of control | dose: 16.0 mg/kg/injection, schedule: Q01DX009 (ip), vehicle: Klucel (hydroxypropylcellulose) (HPC) 96 % of control | dose: 32.0 mg/kg/injection, schedule: Q01DX009 (ip), vehicle: Klucel (hydroxypropylcellulose) (HPC) 93 % of control

[CH3][Sn]([CH3])([N](c1ccccn1)c1ccccn1)[N](c1ccccn1)c1ccccn1
inactive: [5] 111 % of control | dose: 100.0 mg/kg/injection, schedule: Q01DX005 (ip), vehicle: Klucel (hydroxypropylcellulose) (HPC) 118 % of control

CCCCC(CC)CN1CN2CN(CC(CC)CCCC)CC2(C)C1 (stereo unspecified)
inactive: dose: 12.5 mg/kg/injection, schedule: Q01DX005 (ip), vehicle: saline with Tween-80 100 % of control | dose: 25.0 mg/kg/injection, schedule: Q01DX005 (ip), vehicle: saline with Tween-80 105 % of control | [6] 104 % of control and 105 % of control

C=CC(C)(C)C12CC3C(=O)N/C(=C\c4cnc[nH]4)C(=O)N3C1Nc1ccccc12 (stereo unspecified)
inactive: dose: 6.25 mg/kg/injection, schedule: Q01DX009 (ip), vehicle: Klucel (hydroxypropylcellulose) (HPC) 118 % of control and 97 % of control | [1] 86 % of control | dose: 12.5 mg/kg/injection, schedule: Q01DX009 (ip), vehicle: Klucel (hydroxypropylcellulose) (HPC) 116 % of control and 95 % of control | [2] 98 % of control and 106 % of control | [3] 92 % of control | [4] 106 % of control and 109 % of control | [7] 100 % of control

O=C(CCl)c1ccc(Cl)c(Cl)c1
inactive: dose: 100.0 mg/kg/injection, schedule: Q01DX001 (ip), vehicle: other 100 % of control | dose: 200.0 mg/kg/injection, schedule: Q01DX001 (ip), vehicle: other 100 % of control

OC(CCl)Cn1nnc2ccccc21 (stereo unspecified)
inactive: [6] 103 % of control | [8] 100 % of control | [9] 93 % of control | [10] 94 % of control | [11] 98 % of control | [12] 99 % of control

CCOC(=O)C1C(=O)CN(C(=O)OC)C1C (stereo unspecified)
inactive: [6] 96 % of control | [8] 99 % of control | [10] 93 % of control

COc1cc(CNNc2ccc(NC(C)=O)cc2N)ccc1OC(C)=O
inactive: dose: 25.0 mg/kg/injection, schedule: Q04DX003 (ip), vehicle: saline with Tween-80 94 % of control | dose: 50.0 mg/kg/injection, schedule: Q04DX003 (ip), vehicle: saline with Tween-80 91 % of control | [9] 86 % of control

NNC(=O)c1c(O)ccc2ccccc12
inactive: [6] 95 % of control | [8] 93 % of control | [10] 100 % of control

Cc1ccc(NCc2ccccn2)nc1
inactive: [6] 99 % of control | [8] 89 % of control

CC(C)(C)c1cc(CCc2nc(CCc3cc(C(C)(C)C)c(O)c(C(C)(C)C)c3)nc(CCc3cc(C(C)(C)C)c(O)c(C(C)(C)C)c3)n2)cc(C(C)(C)C)c1O
inactive: [4] 92 % of control | [13] 88 % of control | [14] 93 % of control

CC(C)CCC1=CC(=O)c2c(O)ccc(O)c2C1=O
inactive: dose: 2.5 mg/kg/injection, schedule: Q04DX002 (ip), vehicle: DMSO 97 % of control | dose: 5.0 mg/kg/injection, schedule: Q04DX002 (ip), vehicle: DMSO 97 % of control | dose: 10.0 mg/kg/injection, schedule: Q04DX002 (ip), vehicle: DMSO 95 % of control

O=C(N/N=C/C(O)C(O)C(O)C(O)C(=O)O)c1ccncc1 (stereo unspecified)
inactive: dose: 50.0 mg/kg/injection, schedule: Q01DX005 (ip), vehicle: saline 99 % of control | dose: 100.0 mg/kg/injection, schedule: Q01DX005 (ip), vehicle: saline 93 % of control | dose: 200.0 mg/kg/injection, schedule: Q01DX005 (ip), vehicle: saline 100 % of control

C=C(C)[C@H]1C[C@@H](O)[C@H]2O[C@@]2(C)C1
inactive: dose: 50.0 mg/kg/injection, schedule: Q01DX009 (ip), vehicle: saline 91 % of control | dose: 100.0 mg/kg/injection, schedule: Q01DX009 (ip), vehicle: saline 90 % of control | dose: 200.0 mg/kg/injection, schedule: Q01DX009 (ip), vehicle: saline 102 % of control

CCOC(=O)N1CCc2cc(OC)c(O)cc2C1CC1=CC(=O)C(OC)=CC1=O (stereo unspecified)
inactive: dose: 100.0 mg/kg/injection, schedule: Q04DX002 (ip), vehicle: saline with Tween-80 102 % of control | dose: 200.0 mg/kg/injection, schedule: Q04DX002 (ip), vehicle: saline with Tween-80 100 % of control | dose: 400.0 mg/kg/injection, schedule: Q04DX002 (ip), vehicle: saline with Tween-80 97 % of control

Cc1nn(C(=O)c2ccncc2)c(C)c1N=Nc1ccccc1[N+](=O)[O-]
inactive: [4] 102 % of control | [13] 96 % of control | [14] 98 % of control

CCOC(=O)Nc1ccc2nc(N3CCCCCC3)sc2c1
inactive: [7] 101 % of control | [15] 100 % of control | [16] 102 % of control

COc1ccc(OC)c(NC(=O)N2CCCC2)c1
inactive: [7] 100 % of control | [15] 96 % of control | [16] 96 % of control

CN(C)[C@@H]1C(=O)C(C(=O)NCNCCCC(=O)O)=C(O)[C@@]2(O)C(=O)C3=C(O)c4c(O)cccc4[C@@](C)(O)[C@H]3C[C@@H]12
inactive: [9] 104 % of control | [11] 100 % of control | [12] 95 % of control

Cc1ccc(N2C(c3ccccc3)=CC(=C3C=CC(=O)C=C3)C=C2c2ccccc2)cc1
inactive: dose: 3.75 mg/kg/injection, schedule: Q01DX005 (ip), vehicle: saline with Tween-80 110 % of control | dose: 7.5 mg/kg/injection, schedule: Q01DX005 (ip), vehicle: saline with Tween-80 112 % of control | dose: 15.0 mg/kg/injection, schedule: Q01DX005 (ip), vehicle: saline with Tween-80 103 % of control

Oc1ccccc1C=NCCN=Cc1ccccc1O
inactive: [7] 99 % of control | [15] 99 % of control | [16] 101 % of control | dose: 400.0 mg/kg/injection, schedule: Q01DX009 (ip), vehicle: saline with Tween-80 105 % of control
